We go through 20 molecules from patent US8178530B2, “Imidazolopyrazine compounds useful for the treatment of degenerative and inflammatory diseases” (Janssen Pharmaceutica NV, priority 2006, dated 2012).

One may read the EC50 as the concentration needed to bring the measured effect to its halfway point. Read a low EC50 as greater potency.

A value given as a limit tells only on which side of the number the result lay.

The test deals with TNFα release by human PBMCs. Briefly: Cytokine release by LPS-stimulated human PBMCs (TNFα ELISA). It is filed as cell-based. The note with it: PBMC, LPS 1 μg/mL, 24 hr. How it is done: Human peripheral blood mononuclear cells (PBMCs) are isolated from “buffy coats” prepared from the blood of healthy volunteers, isolated essentially according to method of Bøyum (1984). In brief, buffy coat is diluted 1:1 with 1×PBS (Gibco) and 30 mL is carefully put on top of 20 mL Lymphoprep™ (Lucron Bioproducts) in 50 mL Falcon tubes. After centrifugation (35 min, 400 g, 18° C.) the mononuclear cells are collected from the white interphase and washed 3 times with 1×PBS by resuspending and centrifugation (10 min, 200 g). Isolated PBMCs are finally resuspended in RPMI 1640 (Cat. No. 21875, Gibco) that is supplemented with 10% heat-inactivated FBS (Hyclone).
For the assay PBMCs are seeded at 2.5E6 cells/mL in 160 μL in 96-well plates (Nunc). Serial dilution of the test compounds are made first in DMSO (Sigma) and then diluted 50-fold in M199 medium (Gibco) containing 1% heat-inactivated FBS. Compounds are further 1/10 diluted in the assay plates to obtain final DMSO concentration of 0.2%. Cells are preincubated with the compounds for 1 hr at 37° C., 5% CO2. Then, cells are stimulated with LPS (Escherichia coli serotype 026:B6, Cat. No. L2654, Sigma) that is added in a volume of 20 μL to a final concentration of 1 μg/mL and cells are further cultured for 24 hr. The plates are centrifuged and the supernatant is collected and stored at −80° C. until analysis of appropriate dilutions in ELISAs.
The following 384-well chemiluminescent ELISA protocol was developed to measure TNFα levels in the supernatant: White Lumitrac 600 384-well plates (Greiner) are coated with (40 μL/well) anti-TNFα capture antibody (Cat. No. 551220, BD Pharmingen) that is diluted to 1 μg/mL in 1×PBS (Gibco). After overnight incubation at 4° C., plates are washed with 1×PBS (80 g NaCl, 2 g KCl (Sigma), 11.5 g Na2HPO4.7H2O and 2 g KH2PO4 in 10 L milliQ; pH 7.4) and blocked with 100 μL/well buffer B (1×PBS containing 1% BSA (Sigma), 5% sucrose (Sigma) and 0.05% NaN3 (Sigma)). After 4 hr incubation at RT, blocking buffer is removed and plates are washed once with PBST (1×PBS with 0.05% Tween-20 (Sigma)). Then, 40 μL of sample is transferred to the ELISA plates and plates are incubated at 4° C. Next day, plates are washed 3 times (twice with PBST and once with PBS) and 35 μL/well biotinylated anti-TNFα antibody (Cat. No. 554511, BD Pharmingen) diluted first to a concentration of 250 ng/ml in buffer D (1×PBS with 1% BSA) is added. After 2 h of incubation at RT, plates are washed as described above and 35 μL/well of a 1/2000 dilution of streptavidin-HRP conjugate (Cat. No. SNN2004, Biosource) in buffer D is added. After 45 min, plates are washed as described above and incubated for 5 min with 50 μL/well BM Chemiluminescence ELISA Substrate POD (Roche). Readout is performed on the Luminoscan Ascent Luminometer (Labsystems) with an integration time of 100 msec delivering raw data (RLU: relative luminescence units). The following controls are included in the experiments, a maximal signal control, in which the cells are activated by LPS but only the 0.2% DMSO vehicle (and thus no compound) is added. This control indicates the maximal level of TNFα that can be achieved in the test. A minimal signal control is also included in these experiments. Here, cells are not triggered. This control returns the basal TNFα levels produced by the PBMCs. The percent inhibition (PIN) of the TNFα release, achieved by the compounds is then calculated based on the RLU data returned by the ELISA with following formula: 100−[((TNFα level compound X at concentration Y−minimal TNFα levels)/(maximal TNFα levels−minimal TNFα levels))×100]. Where compounds are tested at 8 concentrations (1/3 serial dilution), EC50-values can be calculated by curve fitting of the means of the PIN data achieved for a compound at each test concentration. […]
(In general: ELISA stands for enzyme-linked immunosorbent assay.)
In turn, `NS(=O)(=O)c1ccc(Nc2ncc(-c3cn[nH]c3)n3ccnc23)cc1` [Compound 36] yielded an EC50 of over 1000 nM.
Then `Cn1cnnc1-c1ccc(Nc2ncc(-c3ccc(C(N)=O)cc3)n3ccnc23)cc1` [Compound 141], with over 1000 nM; and `CN1CCN(c2ccc(Nc3ncc(-c4ccc(C(N)=O)nc4)n4ccnc34)cc2)CC1` [Compound 129, 5-{8-[4-(4-Methyl-piperazin-1-yl)-phenylamino]-imidazo[1,2-a]pyrazin-5-yl}-pyridine-2-carboxylic acid amide], with over 1000 nM; and `CN1CCN(c2ccc(Nc3ncc(-c4cc(C(N)=O)co4)n4ccnc34)cc2)CC1` [Compound 151], with over 1000 nM.
For `NC(=O)c1ncc(-c2cnc(Nc3ccc(N4CCOCC4)cc3)c3nccn23)s1` [Compound 173, 5-[8-(4-Morpholin-4-yl-phenylamino)-imidazo[1,2-a]pyrazin-5-yl]-thiazole-2-carboxylic acid amide] the value was over 1000 nM; for `CN1CCN(c2ccc(Nc3ncc(-c4ccc(C(N)=O)cc4)n4ccnc34)cc2)CC1` [Compound 143], over 1000 nM; for `CCNCCNC(=O)c1ccc(Nc2ncc(-c3cn[nH]c3)n3ccnc23)cc1` [Compound 56], over 1000 nM.
As for `CCN(CC)CCNC(=O)c1ccc(Nc2ncc(-c3cn[nH]c3)n3ccnc23)cc1` [Compound 32, N-(2-Diethylamino-ethyl)-4-[5-(1H-pyrazol-4-yl)-imidazo[1,2-a]pyrazin-8-ylamino]-benzamide], the EC50 is over 1000 nM.
As for `CN1CCN(c2ccc(Nc3ncc(-c4ccnc(F)c4)n4ccnc34)cc2)CC1` [Compound 125, [5-(2-Fluoro-pyridin-4-yl)-imidazo[1,2-a]pyrazin-8-yl]-[4-(4-methyl-piperazin-1-yl)-phenyl]-amine], the EC50 was over 1000 nM.
As to `CN1CCN(c2ccc(Nc3ncc(-c4ccc(C(N)=O)cn4)n4ccnc34)cc2)CC1` [Compound 128], the EC50 was over 1000 nM.
For `NC(=O)c1ccc(-c2cnc(Nc3ccc(N4CCCCC4)cc3)c3nccn23)cc1` [Compound 144] the value was 1 to 100 nM; for `CN1CCN(c2ccc(Nc3ncc(-c4ccc(C(N)=O)cc4)n4ccnc34)cc2Cl)CC1` [Compound 136, 4-{8-[3-Chloro-4-(4-methyl-piperazin-1-yl)-phenylamino]-imidazo[1,2-a]pyrazin-5-yl}-benzamide], 101 to 500 nM; for `NC(=O)c1cnc(-c2cnc(Nc3ccc(N4CCOCC4)cc3)c3nccn23)s1` [Compound 158, 2-[8-(4-Morpholin-4-yl-phenylamino)-imidazo[1,2-a]pyrazin-5-yl]-thiazole-5-carboxylic acid amide], 101 to 500 nM.
`C[C@@H]1CN(c2ccc(Nc3ncc(-c4cc(F)c(C(N)=O)c(F)c4)n4ccnc34)cc2)[C@@H](C)CN1C` [Compound 181] yielded an EC50 of over 1000 nM.
As to `CN1CCC(NC(=O)c2ccc(Nc3ncc(-c4cn[nH]c4)n4ccnc34)cc2)C1` (centres unmarked) [Compound 64], the EC50 was over 1000 nM.
Then `CC(C)N1CCN(c2ccc(Nc3ncc(-c4coc(C(N)=O)c4)n4ccnc34)cc2)CC1` [Compound 204, 4-{8-[4-(4-Isopropyl-piperazin-1-yl)-phenylamino]-imidazo[1,2-a]pyrazin-5-yl}-furan-2-carboxylic acid amide], with over 1000 nM; and `O=C(NCc1cccnc1)c1ccc(Nc2ncc(-c3cn[nH]c3)n3ccnc23)cc1` [Compound 35], with 501 to 1000 nM; and `CN1CCN(c2ccc(Nc3ncc(-c4ccc(C(N)=O)c(Cl)c4)n4ccnc34)cc2)CC1` [Compound 124], with 501 to 1000 nM.
For `CCN(CC)CCNC(=O)c1ccc(Nc2ncc(-c3cn[nH]c3)n3ccnc23)cc1F` [Compound 82] the value was over 1000 nM; for `CN1CCN(c2ccc(Nc3ncc(-c4ccc(C(N)=O)cc4)n4ccnc34)cc2F)CC1` [Compound 171, 4-{8-[3-Fluoro-4-(4-methyl-piperazin-1-yl)-phenylamino]-imidazo[1,2-a]pyrazin-5-yl}-benzamide], over 1000 nM.
